According to PMC8533211, “Computationally Assisted Lead Optimization of Novel Potent and Selective MAO-B Inhibitors” (Biomedicines, 2021):
Entries after “also recorded” stand apart in the source; their conditions may differ. Read-outs that look alike come from different tables or passages of the source.

Assays:
human recombinant MAO-A = molecular target: T1, human recombinant MAO-A (Homo sapiens, UniProt P21397); experiment: kynuramine oxidation deamination assay, MAO-A inhibition (IC50); assay type: biochemical; settings: kynuramine 80 μM, mean ± S.D. of triplicate
T1 construct: purchased BD Biosciences (Bedford, MA, USA)
T1 sequence (P21397 1-527): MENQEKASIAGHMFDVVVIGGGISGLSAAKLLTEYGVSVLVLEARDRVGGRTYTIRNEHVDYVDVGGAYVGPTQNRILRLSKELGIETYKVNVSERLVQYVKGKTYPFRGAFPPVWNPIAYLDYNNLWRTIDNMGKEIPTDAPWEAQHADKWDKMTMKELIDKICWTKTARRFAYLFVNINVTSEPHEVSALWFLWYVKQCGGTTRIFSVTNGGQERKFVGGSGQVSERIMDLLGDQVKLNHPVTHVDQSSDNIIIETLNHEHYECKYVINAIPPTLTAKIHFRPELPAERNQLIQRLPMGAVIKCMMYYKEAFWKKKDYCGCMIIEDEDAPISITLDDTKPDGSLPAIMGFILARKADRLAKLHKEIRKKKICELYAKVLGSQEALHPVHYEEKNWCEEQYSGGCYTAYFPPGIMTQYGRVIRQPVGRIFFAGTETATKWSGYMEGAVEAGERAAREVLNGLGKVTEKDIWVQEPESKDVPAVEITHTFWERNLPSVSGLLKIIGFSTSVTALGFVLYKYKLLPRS
Description: (§1) A fixed single concentration of kynuramine substrate and varying concentrations of the test inhibitor were used to determine the IC50 values. The kynuramine concentrations for MAO-A and -B were 80 μM and 50 μM, respectively. These concentrations of kynuramine were twice the apparent KM value for substrate binding. […] Enzymatic reactions were performed in 50 μL of the assay mixture containing 0.1 M potassium phosphate buffer, pH 7.4. […] Reactions were initiated by the addition of 12.50 μL of MAO-A (to 5 μg/mL) or -B (to 10 μg/mL). The plate was incubated for 20 min at 37 °C, and the enzymatic reaction was terminated by the addition of 18.8 μL of 2N NaOH. Formation of the enzyme product, 4-hydroxyquinoline, was measured fluorometrically using a SpectraMax M5 fluorescence plate reader (Molecular Devices, Sunnyvale, CA, USA) with excitation (320 nm) and emission (380 nm) wavelengths and the Soft Max Pro program. The inhibition effects of enzyme activity were calculated as percent of product formation compared to the corresponding control (enzyme–substrate reaction) without inhibitors. Controls included the assays where the enzyme or the substrate was added after terminating the reaction to determine the interference with the fluorescence measurements. The IC50 values for MAO-A and -B inhibition were calculated from the concentration-dependent inhibition curves using XLFit® software.

human recombinant MAO-B [1] = molecular target: T2, human recombinant MAO-B (Homo sapiens, UniProt P27338); experiment: MAO-B inhibition kinetics, Lineweaver–Burk (Ki, type of inhibition); assay type: biochemical; set-up: purchased BD Biosciences (Bedford, MA, USA); settings: for Ki: kynuramine 1.90–500 μM, mean ± S.D. of triplicate experiments, read-out: Monoamine Oxidase B Ki
T2 sequence (P27338 1-520): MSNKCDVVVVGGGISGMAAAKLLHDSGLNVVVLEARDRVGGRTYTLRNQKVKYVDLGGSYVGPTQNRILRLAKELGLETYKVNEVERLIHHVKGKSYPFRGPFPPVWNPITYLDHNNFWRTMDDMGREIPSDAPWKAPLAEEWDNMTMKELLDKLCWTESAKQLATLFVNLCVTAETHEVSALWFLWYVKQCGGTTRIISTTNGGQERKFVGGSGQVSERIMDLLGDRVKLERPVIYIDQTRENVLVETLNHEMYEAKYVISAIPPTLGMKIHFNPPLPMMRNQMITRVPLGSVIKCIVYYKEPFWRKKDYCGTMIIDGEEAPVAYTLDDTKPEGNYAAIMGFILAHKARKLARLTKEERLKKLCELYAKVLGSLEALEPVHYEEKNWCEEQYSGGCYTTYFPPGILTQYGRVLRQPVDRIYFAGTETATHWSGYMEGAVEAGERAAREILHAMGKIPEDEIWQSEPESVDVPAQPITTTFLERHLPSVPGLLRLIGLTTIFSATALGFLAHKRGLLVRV
Description: (§2) The controls without inhibitor were also run simultaneously. Three sets of assays were performed at varying concentrations of the substrate for each experiment: one control without inhibitor and the others at two fixed concentrations of the inhibitor. The data were analyzed by double reciprocal Lineweaver–Burk plots to determine Ki (i.e., inhibition/binding affinity) values and the kinetic data, namely Km, Vmax, and Ki values, were computed by SigmaPlot 12 [9].
Modified flavonoids (1–4) c were evaluated against MAO-B at varying concentrations of kynuramine, a nonselective substrate, to investigate the nature of inhibition of the enzymes. Based on dose–concentration inhibition, three to five concentrations (below and above the concentration of IC50 values) were selected for the inhibition kinetics experiment.

human recombinant MAO-B [2] = molecular target: T2, human recombinant MAO-B; experiment: reversibility of binding by equilibrium dialysis of the enzyme–inhibitor complex; settings: for MAO-B enzyme activity recovered after dialysis: 1.5 µM inhibitor, dialyzed overnight at 4 °C, 25 mM buffer pH 7.4; for reversibility of binding/inhibition of MAO-B: equilibrium dialysis
Description: Recovery of the catalytic activity of the enzyme was determined by assay of the enzyme activity before and after equilibrium-dialysis. […] After 20 min of incubation at 37 °C, the reaction was stopped by chilling the tubes in the ice bath. All the samples were dialyzed against potassium phosphate buffer (25 mM; pH 7.4) at 4 °C for 14–18 h (with three buffer changes). The control enzyme (without inhibitor) was also run simultaneously using the same procedure and the activity of the enzyme was determined before and after the dialysis.
MAO-B enzyme was incubated with the highest concentration of the analogs for 20 min at 37 °C to allow for binding of the inhibitor with the enzyme and formation of the enzyme–inhibitor complex. Then, the mixtures of the enzyme–inhibitor complex were dialyzed overnight at 4 °C using 25 mM KHPO4 (pH 7.4) buffer. The enzyme activities were examined before and after dialysis.

human recombinant MAO-B [3] = molecular target: T2, human recombinant MAO-B; experiment: time-dependent inhibition of MAO-B; settings: read-out: MAO-B enzyme inhibition in time-dependent assay
Description: The controls, without inhibitors, were also run simultaneously. Activities of the enzyme were determined as described above, and the percentage of the remaining enzyme activity was plotted against the pre-incubation time to determine time-dependent inhibition.
The control enzyme without inhibitor was also run concurrently. For validation, the MAO- B standards were run simultaneously for the time-dependent assay.

human recombinant MAO-B [4] = molecular target: T2, human recombinant MAO-B; experiment: kynuramine oxidation deamination assay, MAO-B inhibition (IC50); assay type: biochemical; set-up: purchased BD Biosciences (Bedford, MA, USA); settings: for Selectivity Index MAO-A/B: ratio of IC50 MAO-A / MAO-B; for IC50: recombinant human MAO-B, kynuramine 50 μM, mean ± S.D. of triplicate
Description: as §1, with “The kynuramine concentrations for MAO-A and -B were 80 μM and 50 μM, respectively.” left out

[5] = tested on: MAO-A (rat liver mitochondrial fraction); set-up: method as in PMID 18372132; settings: chromogenic solution; cited from earlier work
[6] = tested on: MAO-B (rat liver mitochondrial fraction); set-up: method as in PMID 18372132; settings: cited from earlier work
human recombinant MAO B = settings: cited from earlier work
human recombinant MAO A = settings: cited from earlier work
Monoamine Oxidase A = molecular target: T3, Monoamine Oxidase A (Homo sapiens, UniProt P21397); experiment: MAO-A inhibition kinetics (Ki, type of inhibition); assay type: biochemical
T3 sequence (P21397 1-527): T1 sequence (P21397 1-527)
Description: as §2

MAO-B = tested on: MAO-B; set-up: method as in PMID 32869630; settings: chemiluminescent assay, MAO-Glo kit; cited from earlier work
MAO-A = tested on: MAO-A; set-up: method as in PMID 32869630; settings: chemiluminescent assay, MAO-Glo kit; cited from earlier work

SMILES: COc1cc(O)c2c(=O)cc(-c3ccc(OC(C)C)cc3)oc2c1 [Compound 2c, 5-Hydroxy-2-(4-isopropoxyphenyl)-7-methoxy-4H-chromen-4-one]
- IC50 (human recombinant MAO-A): 30740 ± 23 nM
- Monoamine Oxidase B Type of Inhibition (human recombinant MAO-B [1]): mixed/reversible
- Ki (human recombinant MAO-B [1]): 52 ± 3.1 nM
- MAO-B enzyme activity recovered after dialysis (human recombinant MAO-B [2]): 66%
- reversibility of binding/inhibition of MAO-B (human recombinant MAO-B [2]): reversible inhibition
- reversibility of binding/inhibition of MAO-B (human recombinant MAO-B [2]; listed as O-isopropyl): reversible MAO-B inhibitors
- inhibition at 0.3 µM (human recombinant MAO-B [3]): 30 to 50%
- selectivity towards MAO-B compared with MAO-A (human recombinant MAO-B [4]): 1921 fold
- Selectivity Index MAO-A/B (human recombinant MAO-B [4]): 1921.3
- IC50 (human recombinant MAO-B [4]): 16 ± 7 nM

SMILES: CCCOc1ccc(-c2cc(=O)c3c(O)cc(OC)cc3o2)cc1 [Compound 1c, 5-Hydroxy-7-methoxy-2-(4-propoxyphenyl)-4H-chromen-4-one]
- IC50 (human recombinant MAO-A): 48800 ± 2010 nM
- Monoamine Oxidase B Type of Inhibition (human recombinant MAO-B [1]): mixed/partially reversible
- Ki (human recombinant MAO-B [1]): 43 ± 3.8 nM
- MAO-B enzyme activity recovered after dialysis (human recombinant MAO-B [2]): 30%
- reversibility of binding/inhibition of MAO-B (human recombinant MAO-B [2]): partially reversible; also recorded: reversible inhibition
- reversibility of binding/inhibition of MAO-B (human recombinant MAO-B [2]; listed as O-propyl): reversible MAO-B inhibitors
- inhibition at 0.1 µM (human recombinant MAO-B [3]): 70 to 80%
- selectivity towards MAO-B compared with MAO-A (human recombinant MAO-B [4]): 1478 fold
- Selectivity Index MAO-A/B (human recombinant MAO-B [4]): 1478.2
- IC50 (human recombinant MAO-B [4]): 33 ± 4.2 nM

SMILES: O=C1C[C@@H](c2ccc(O)cc2)Oc2cc(O)cc(O)c21 [Naringenin]
- IC50 [5]: 955000 ± 129000 nM
- IC50 ([6]; chromogenic solution): 288000 ± 18000 nM
- Selectivity Index MAO-A/B [6]: 3.32

SMILES: C#CCOc1ccc(-c2cc(=O)c3c(O)cc(OC)cc3o2)cc1 [Compound 4c, 5-Hydroxy-7-methoxy-2-(4-(prop-2-yn-1-yloxy)phenyl)-4H-chromen-4-one]
- IC50 (human recombinant MAO-A): 62700 ± 5210 nM
- Monoamine Oxidase B Type of Inhibition (human recombinant MAO-B [1]): mixed/irreversible
- Ki (human recombinant MAO-B [1]): 68 ± 7.1 nM
- reversibility of binding/inhibition of MAO-B (human recombinant MAO-B [2]): irreversible MAO-B inhibitors
- inhibition at 0.4 µM (human recombinant MAO-B [3]): 70 to 80%
- selectivity towards MAO-B compared with MAO-A (human recombinant MAO-B [4]): 1279 fold
- Selectivity Index MAO-A/B (human recombinant MAO-B [4]): 1279.6
- IC50 (human recombinant MAO-B [4]): 49 ± 1.4 nM

SMILES: COc1ccc(-c2cc(=O)c3c(O)cc(O)cc3o2)cc1 [Acacetin]
- IC50 (human recombinant MAO-A): 105 ± 1.4 nM
- Monoamine Oxidase B Type of Inhibition (human recombinant MAO-B [1]): competitive/reversible
- IC50 (human recombinant MAO B; human recombinant, kynuramine): 49 ± 0.7 nM
- IC50 (human recombinant MAO A; human recombinant, kynuramine): 121 ± 1 nM
- Monoamine Oxidase A Type of Inhibition (Monoamine Oxidase A): competitive/reversible
- Ki (Monoamine Oxidase A; mean ± S.D. of triplicate experiments): 30 ± 1.8 nM

SMILES: O=c1cc(-c2ccc(O)c(O)c2)oc2cc(O)cc(O)c12 [Luteolin]
- IC50 (MAO-B): > 100000 nM
- IC50 (MAO-A): 8570 ± 470 nM

SMILES: O=c1cc(-c2ccc(O)cc2)oc2cc(O)cc(O)c12 [Apigenin]
- IC50 (human recombinant MAO B; human recombinant, kynuramine): 1120 ± 270 nM
- IC50 (human recombinant MAO A; human recombinant, kynuramine): 640 ± 110 nM

SMILES: COc1cc(O)c2c(=O)cc(-c3ccc(O)c(OC)c3)oc2c1 [Vetulin]
- Selectivity Index MAO-A/B (human recombinant MAO B): 42.70
- IC50 (human recombinant MAO B; human recombinant, kynuramine): 440 ± 10 nM
- IC50 (human recombinant MAO A; human recombinant, kynuramine): 18800 ± 290 nM

SMILES: COc1cc(-c2oc3cc(O)cc(O)c3c(=O)c2O)ccc1O [Isorhamnetin]
- Selectivity Index MAO-A/B (human recombinant MAO B): 0.30
- IC50 (human recombinant MAO B; human recombinant, kynuramine): 21200 ± 4990 nM
- IC50 (human recombinant MAO A; human recombinant, kynuramine): 6420 ± 7690 nM

SMILES: COc1ccc(-c2oc3cc(O)cc(O)c3c(=O)c2O)cc1 [4′-O-Methyl kaempferol]
- IC50 (human recombinant MAO B; human recombinant, kynuramine): > 100000 nM
- IC50 (human recombinant MAO A; human recombinant, kynuramine): 1350 ± 198 nM

SMILES: O=c1c(O)c(-c2ccc(O)c(O)c2)oc2cc(O)cc(O)c12 [Quercetin]
- Selectivity Index MAO-A/B (human recombinant MAO B): 0.05
- IC50 (human recombinant MAO B; human recombinant, kynuramine): 28400 ± 5410 nM
- IC50 (human recombinant MAO A): 1520 ± 90 nM

SMILES: COc1cc(O)c2c(=O)cc(-c3ccc(OCC(C)C)cc3)oc2c1 [Compound 3c, 5-Hydroxy-2-(4-Isobutoxyphenyl)7-methoxy-4H-chromen-4-one]
- IC50 (human recombinant MAO-A): > 100000 nM
- Monoamine Oxidase B Type of Inhibition (human recombinant MAO-B [1]): mixed/irreversible
- Ki (human recombinant MAO-B [1]): 37 ± 9.5 nM
- reversibility of binding/inhibition of MAO-B (human recombinant MAO-B [2]): irreversible MAO-B inhibitors
- inhibition at 0.3 µM (human recombinant MAO-B [3]): 70 to 80%
- selectivity towards MAO-B compared with MAO-A (human recombinant MAO-B [4]): > 3000 fold
- selectivity towards MAO-B compared with MAO-A (human recombinant MAO-B [4]; listed as O-isobutyl): > 3225 fold
- Selectivity Index MAO-A/B (human recombinant MAO-B [4]): >3225.8
- IC50 (human recombinant MAO-B [4]): 31 ± 7 nM
